Measurements published in ChEMBL document CHEMBL2346515, “Discovery of 4-alkylamino-7-aryl-3-cyanoquinoline LRRK2 kinase inhibitors” (Bioorg Med Chem Lett, 2013).

Columns and labels:
[1] = biological target: Protein kinase C beta type (Homo sapiens) (UniProt P05771); assay: Inhibition of PKCbeta1 (unknown origin) at 10 uM by single point assay
[2] = biological target: Serine/threonine-protein kinase PAK 4 (Homo sapiens) (UniProt O96013); assay: Inhibition of PAK4 (unknown origin) at 10 uM by single point assay
Serine/threonine-protein kinase PAK 4 (Homo sapiens), sequence (O96013 whole entry, looked up): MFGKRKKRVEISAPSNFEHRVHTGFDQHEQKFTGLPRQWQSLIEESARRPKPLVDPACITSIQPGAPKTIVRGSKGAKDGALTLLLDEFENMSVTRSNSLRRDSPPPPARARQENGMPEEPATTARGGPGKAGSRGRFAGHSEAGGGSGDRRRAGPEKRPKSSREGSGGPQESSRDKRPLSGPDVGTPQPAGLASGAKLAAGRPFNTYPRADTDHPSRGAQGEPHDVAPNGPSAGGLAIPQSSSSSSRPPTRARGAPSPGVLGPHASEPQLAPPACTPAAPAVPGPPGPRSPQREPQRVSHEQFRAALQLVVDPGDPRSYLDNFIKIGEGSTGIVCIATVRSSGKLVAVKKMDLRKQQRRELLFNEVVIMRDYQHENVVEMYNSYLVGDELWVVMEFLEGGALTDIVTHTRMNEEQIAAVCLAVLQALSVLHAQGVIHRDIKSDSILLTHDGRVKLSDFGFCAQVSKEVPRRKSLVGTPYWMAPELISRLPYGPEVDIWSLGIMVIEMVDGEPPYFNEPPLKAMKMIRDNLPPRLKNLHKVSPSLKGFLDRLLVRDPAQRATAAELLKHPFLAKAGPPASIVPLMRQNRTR

[3] = biological target: Serine/threonine-protein kinase PLK1 (Homo sapiens) (UniProt P53350); assay: Inhibition of PLK1 (unknown origin) at 10 uM by single point assay
[4] = biological target: Dual specificity tyrosine-phosphorylation-regulated kinase 1B (Homo sapiens) (UniProt Q9Y463); assay: Inhibition of DYRK1B (unknown origin) at 10 uM by single point assay
[5] = biological target: Macrophage colony-stimulating factor 1 receptor (Homo sapiens) (UniProt P07333); assay: Inhibition of CSF1R (unknown origin) at 10 uM by single point assay
Macrophage colony-stimulating factor 1 receptor (Homo sapiens), sequence (P07333 whole entry): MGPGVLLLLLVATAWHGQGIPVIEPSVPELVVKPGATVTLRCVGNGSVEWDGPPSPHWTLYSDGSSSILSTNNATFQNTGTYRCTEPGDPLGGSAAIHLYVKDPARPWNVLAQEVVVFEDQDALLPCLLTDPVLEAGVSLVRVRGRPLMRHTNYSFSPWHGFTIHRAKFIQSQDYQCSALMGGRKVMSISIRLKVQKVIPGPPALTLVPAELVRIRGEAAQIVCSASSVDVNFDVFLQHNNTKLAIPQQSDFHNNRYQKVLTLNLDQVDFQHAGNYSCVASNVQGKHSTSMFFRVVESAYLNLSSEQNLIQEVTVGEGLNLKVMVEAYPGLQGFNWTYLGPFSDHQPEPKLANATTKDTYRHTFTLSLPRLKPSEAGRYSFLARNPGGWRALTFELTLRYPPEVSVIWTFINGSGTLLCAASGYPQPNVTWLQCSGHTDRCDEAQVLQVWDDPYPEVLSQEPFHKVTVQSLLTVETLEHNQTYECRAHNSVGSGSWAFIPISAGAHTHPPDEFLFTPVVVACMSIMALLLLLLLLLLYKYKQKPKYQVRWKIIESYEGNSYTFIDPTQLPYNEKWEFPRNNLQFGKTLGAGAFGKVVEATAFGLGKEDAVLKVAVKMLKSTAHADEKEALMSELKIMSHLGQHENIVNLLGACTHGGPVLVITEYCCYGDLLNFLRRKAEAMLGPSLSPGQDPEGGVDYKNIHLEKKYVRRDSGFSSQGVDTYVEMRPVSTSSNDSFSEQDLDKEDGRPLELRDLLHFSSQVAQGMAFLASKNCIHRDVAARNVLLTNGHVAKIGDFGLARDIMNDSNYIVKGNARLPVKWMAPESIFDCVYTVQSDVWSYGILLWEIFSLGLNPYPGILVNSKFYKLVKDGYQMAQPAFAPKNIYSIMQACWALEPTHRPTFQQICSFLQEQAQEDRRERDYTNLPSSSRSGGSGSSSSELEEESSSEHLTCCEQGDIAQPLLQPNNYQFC

[6] = biological target: PI3-kinase p110-alpha/p85-alpha (Homo sapiens) (UniProt P27986+P42336); assay: Inhibition of PIK3CA/PIK3R1 (unknown origin) at 10 uM by single point assay; type: protein-complex assay
[7] = biological target: Tyrosine-protein kinase ABL1 (Homo sapiens) (UniProt P00519); assay: Inhibition of ABL1 (unknown origin) at 10 uM by single point assay
[8] = biological target: T1, Aurora kinase A (Homo sapiens) (UniProt O14965); assay: Inhibition of AURKA (unknown origin) at 10 uM by single point assay
T1 sequence (whole entry): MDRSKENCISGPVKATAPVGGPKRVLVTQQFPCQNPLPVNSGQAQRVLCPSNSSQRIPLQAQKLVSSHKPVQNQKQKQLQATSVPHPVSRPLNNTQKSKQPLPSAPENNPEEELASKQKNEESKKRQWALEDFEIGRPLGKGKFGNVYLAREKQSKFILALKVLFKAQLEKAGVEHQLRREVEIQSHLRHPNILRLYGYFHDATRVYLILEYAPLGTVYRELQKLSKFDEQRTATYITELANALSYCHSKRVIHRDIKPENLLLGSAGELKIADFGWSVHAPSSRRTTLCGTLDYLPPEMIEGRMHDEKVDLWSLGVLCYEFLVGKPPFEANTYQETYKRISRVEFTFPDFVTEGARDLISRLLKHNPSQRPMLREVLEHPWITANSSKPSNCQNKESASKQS

[9] = biological target: Receptor-type tyrosine-protein kinase FLT3 (Homo sapiens) (UniProt P36888); assay: Inhibition of FLT3 (unknown origin) at 10 uM by single point assay
[10] = biological target: Dual specificity protein kinase CLK1 (Homo sapiens) (UniProt P49759); assay: Inhibition of CLK1 (unknown origin) at 10 uM by single point assay
Dual specificity protein kinase CLK1 (Homo sapiens), sequence (P49759 whole entry, looked up): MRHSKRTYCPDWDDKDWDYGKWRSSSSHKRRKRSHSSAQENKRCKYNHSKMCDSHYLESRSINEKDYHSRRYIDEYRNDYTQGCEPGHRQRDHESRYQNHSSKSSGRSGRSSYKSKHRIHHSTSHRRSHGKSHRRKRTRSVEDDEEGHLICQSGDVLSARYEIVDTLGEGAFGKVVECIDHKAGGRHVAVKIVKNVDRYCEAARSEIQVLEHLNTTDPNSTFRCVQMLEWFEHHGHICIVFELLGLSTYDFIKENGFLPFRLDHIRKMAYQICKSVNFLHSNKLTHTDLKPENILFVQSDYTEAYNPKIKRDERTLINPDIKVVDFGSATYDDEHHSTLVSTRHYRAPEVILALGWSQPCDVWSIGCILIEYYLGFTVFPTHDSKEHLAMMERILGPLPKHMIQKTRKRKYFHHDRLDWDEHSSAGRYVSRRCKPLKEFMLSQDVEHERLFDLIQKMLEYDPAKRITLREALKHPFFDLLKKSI

[11] = biological target: Tyrosine-protein kinase Lck (Homo sapiens) (UniProt P06239); assay: Inhibition of LCK (unknown origin) at 10 uM by single point assay
[12] = biological target: Glycogen synthase kinase-3 beta (Homo sapiens) (UniProt P49841); assay: Inhibition of GSK3beta (unknown origin) at 10 uM by single point assay
Glycogen synthase kinase-3 beta (Homo sapiens), sequence (P49841 whole entry, looked up): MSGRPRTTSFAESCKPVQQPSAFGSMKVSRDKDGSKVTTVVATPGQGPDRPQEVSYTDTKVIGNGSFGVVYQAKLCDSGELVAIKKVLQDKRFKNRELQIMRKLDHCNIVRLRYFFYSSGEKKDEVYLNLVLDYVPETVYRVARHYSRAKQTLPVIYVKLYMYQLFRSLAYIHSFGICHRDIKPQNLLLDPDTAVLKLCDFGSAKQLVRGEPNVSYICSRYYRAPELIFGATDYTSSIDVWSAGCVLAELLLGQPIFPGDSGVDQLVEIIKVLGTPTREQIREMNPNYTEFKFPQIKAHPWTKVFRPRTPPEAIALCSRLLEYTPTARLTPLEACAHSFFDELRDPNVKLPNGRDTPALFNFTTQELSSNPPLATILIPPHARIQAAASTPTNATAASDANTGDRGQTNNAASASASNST

[13] = biological target: Calcium/calmodulin-dependent protein kinase type II subunit alpha (Homo sapiens) (UniProt Q9UQM7); assay: Inhibition of CAMK2alpha (unknown origin) at 10 uM by single point assay
Calcium/calmodulin-dependent protein kinase type II subunit alpha (Homo sapiens), sequence (Q9UQM7 whole entry): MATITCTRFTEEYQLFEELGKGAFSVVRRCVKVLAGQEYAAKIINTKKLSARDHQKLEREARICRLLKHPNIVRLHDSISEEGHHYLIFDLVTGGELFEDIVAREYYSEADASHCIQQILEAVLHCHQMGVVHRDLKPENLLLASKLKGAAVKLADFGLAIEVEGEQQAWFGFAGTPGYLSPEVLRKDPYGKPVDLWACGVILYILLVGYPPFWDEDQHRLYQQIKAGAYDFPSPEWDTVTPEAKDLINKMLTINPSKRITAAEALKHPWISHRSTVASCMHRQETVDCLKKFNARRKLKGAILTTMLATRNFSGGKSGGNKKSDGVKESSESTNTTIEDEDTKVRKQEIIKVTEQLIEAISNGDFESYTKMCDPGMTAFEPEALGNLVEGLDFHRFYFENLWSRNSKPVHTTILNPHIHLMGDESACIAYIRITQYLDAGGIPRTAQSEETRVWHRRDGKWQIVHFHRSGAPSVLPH

[14] = biological target: Cyclin-dependent kinase 1/cyclin B1 (Homo sapiens) (UniProt P06493+P14635); assay: Inhibition of CDK1/cyclin B (unknown origin) at 10 uM by single point assay; type: protein-complex assay
[15] = biological target: Serine/threonine-protein kinase PLK3 (Homo sapiens) (UniProt Q9H4B4); assay: Inhibition of PLK3 (unknown origin) at 10 uM by single point assay
[16] = biological target: Leucine-rich repeat serine/threonine-protein kinase 2 (Homo sapiens, UniProt Q5S007); conditions: 10 uM
Description: Inhibition of LRRK2 (unknown origin) at 10 uM by single point assay

[17] = biological target: T2, Serine/threonine-protein kinase 3 (Homo sapiens) (UniProt Q13188); assay: Inhibition of STK3 (unknown origin) at 10 uM by single point assay
T2 sequence (whole entry): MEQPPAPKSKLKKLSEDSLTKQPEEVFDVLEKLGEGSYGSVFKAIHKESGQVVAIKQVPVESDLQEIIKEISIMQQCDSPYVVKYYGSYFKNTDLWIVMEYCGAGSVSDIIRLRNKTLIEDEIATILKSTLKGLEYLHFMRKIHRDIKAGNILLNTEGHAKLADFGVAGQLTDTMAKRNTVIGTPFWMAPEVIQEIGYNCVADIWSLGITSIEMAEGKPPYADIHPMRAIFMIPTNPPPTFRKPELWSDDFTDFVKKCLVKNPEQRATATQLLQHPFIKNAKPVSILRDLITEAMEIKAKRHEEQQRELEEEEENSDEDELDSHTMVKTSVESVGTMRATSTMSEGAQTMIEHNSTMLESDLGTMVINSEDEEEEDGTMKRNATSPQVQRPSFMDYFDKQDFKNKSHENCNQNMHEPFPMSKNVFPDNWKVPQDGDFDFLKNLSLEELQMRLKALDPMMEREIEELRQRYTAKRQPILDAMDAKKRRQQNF

[18] = biological target: Tyrosine-protein kinase JAK1 (Homo sapiens) (UniProt P23458); assay: Inhibition of JAK1 (unknown origin) at 1 uM by single point assay
Tyrosine-protein kinase JAK1 (Homo sapiens), sequence (P23458 whole entry): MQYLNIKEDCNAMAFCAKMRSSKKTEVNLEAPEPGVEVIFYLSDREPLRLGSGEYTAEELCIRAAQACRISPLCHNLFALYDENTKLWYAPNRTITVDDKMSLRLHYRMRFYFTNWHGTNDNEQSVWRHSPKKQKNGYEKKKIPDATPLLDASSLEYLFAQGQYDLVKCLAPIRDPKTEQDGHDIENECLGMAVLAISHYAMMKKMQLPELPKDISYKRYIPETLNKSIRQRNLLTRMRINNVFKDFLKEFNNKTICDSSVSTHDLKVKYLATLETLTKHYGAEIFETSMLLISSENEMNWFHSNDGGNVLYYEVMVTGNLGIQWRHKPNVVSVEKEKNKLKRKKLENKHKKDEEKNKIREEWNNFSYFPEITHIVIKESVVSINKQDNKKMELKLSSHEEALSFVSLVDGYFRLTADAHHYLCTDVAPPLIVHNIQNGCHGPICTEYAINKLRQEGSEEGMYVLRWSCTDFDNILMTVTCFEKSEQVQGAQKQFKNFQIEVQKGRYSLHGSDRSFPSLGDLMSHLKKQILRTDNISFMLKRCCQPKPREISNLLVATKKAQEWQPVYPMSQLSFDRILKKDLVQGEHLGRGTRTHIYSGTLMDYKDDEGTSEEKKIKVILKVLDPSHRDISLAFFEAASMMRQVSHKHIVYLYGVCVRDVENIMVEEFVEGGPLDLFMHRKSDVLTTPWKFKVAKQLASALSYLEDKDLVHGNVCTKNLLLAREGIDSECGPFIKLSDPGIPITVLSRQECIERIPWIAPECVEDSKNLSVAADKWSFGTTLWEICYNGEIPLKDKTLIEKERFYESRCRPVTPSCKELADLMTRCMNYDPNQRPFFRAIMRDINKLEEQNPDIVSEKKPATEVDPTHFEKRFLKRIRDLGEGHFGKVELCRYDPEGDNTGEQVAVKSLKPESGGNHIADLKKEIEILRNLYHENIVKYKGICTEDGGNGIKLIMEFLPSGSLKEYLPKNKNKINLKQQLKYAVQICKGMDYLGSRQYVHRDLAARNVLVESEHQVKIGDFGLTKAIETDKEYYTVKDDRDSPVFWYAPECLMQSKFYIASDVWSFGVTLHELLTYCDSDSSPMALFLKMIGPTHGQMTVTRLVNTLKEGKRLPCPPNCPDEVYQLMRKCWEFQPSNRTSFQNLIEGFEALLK

[19] = biological target: Calcium/calmodulin-dependent protein kinase type II subunit alpha (Homo sapiens) (UniProt Q9UQM7); assay: Inhibition of CAMK2alpha (unknown origin) at 1 uM by single point assay
[20] = biological target: cAMP-dependent protein kinase catalytic subunit alpha (Homo sapiens) (UniProt P17612); assay: Inhibition of PRKACA (unknown origin) at 1 uM by single point assay
[21] = biological target: Serine/threonine-protein kinase 16 (Homo sapiens) (UniProt O75716); assay: Inhibition of STK16 (unknown origin) at 1 uM by single point assay
Serine/threonine-protein kinase 16 (Homo sapiens), sequence (O75716 whole entry): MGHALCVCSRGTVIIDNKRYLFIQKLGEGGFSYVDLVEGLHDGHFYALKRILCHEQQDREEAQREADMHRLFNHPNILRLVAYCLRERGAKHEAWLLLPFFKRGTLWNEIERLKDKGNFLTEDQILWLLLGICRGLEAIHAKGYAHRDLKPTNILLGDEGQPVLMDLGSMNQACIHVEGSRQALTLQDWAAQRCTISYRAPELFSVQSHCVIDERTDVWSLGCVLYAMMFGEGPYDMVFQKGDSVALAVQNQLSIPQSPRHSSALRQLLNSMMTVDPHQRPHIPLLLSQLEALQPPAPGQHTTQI

[22] = biological target: Dual specificity protein kinase CLK1 (Homo sapiens) (UniProt P49759); assay: Inhibition of CLK1 (unknown origin) at 1 uM by single point assay
[23] = biological target: Macrophage colony-stimulating factor 1 receptor (Homo sapiens) (UniProt P07333); assay: Inhibition of CSF1R (unknown origin) at 1 uM by single point assay
[24] = biological target: Receptor-interacting serine/threonine-protein kinase 2 (Homo sapiens) (UniProt O43353); assay: Inhibition of RIPK2 (unknown origin) at 1 uM by single point assay
Receptor-interacting serine/threonine-protein kinase 2 (Homo sapiens), sequence (O43353 whole entry): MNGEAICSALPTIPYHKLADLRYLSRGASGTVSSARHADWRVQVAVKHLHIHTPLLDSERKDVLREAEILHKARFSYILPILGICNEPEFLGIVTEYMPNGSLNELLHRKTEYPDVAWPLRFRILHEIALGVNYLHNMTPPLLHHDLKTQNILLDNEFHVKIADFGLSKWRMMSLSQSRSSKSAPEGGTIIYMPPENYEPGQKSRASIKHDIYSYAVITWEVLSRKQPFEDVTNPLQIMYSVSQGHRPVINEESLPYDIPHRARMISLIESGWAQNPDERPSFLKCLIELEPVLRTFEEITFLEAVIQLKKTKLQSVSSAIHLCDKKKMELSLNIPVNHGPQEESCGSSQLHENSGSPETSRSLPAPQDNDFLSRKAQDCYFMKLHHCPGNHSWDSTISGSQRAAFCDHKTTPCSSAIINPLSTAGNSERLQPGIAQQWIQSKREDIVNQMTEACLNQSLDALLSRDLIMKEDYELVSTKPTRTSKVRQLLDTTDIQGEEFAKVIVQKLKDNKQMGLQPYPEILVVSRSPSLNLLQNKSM

[25] = biological target: Proto-oncogene tyrosine-protein kinase receptor Ret (Homo sapiens) (UniProt P07949); assay: Inhibition of RET (unknown origin) at 1 uM by single point assay
[26] = biological target: Glycogen synthase kinase-3 beta (Homo sapiens) (UniProt P49841); assay: Inhibition of GSK3beta (unknown origin) at 1 uM by single point assay
Mus musculus = assay: In vivo inhibition of mouse LRRK2 G2019S mutant phosphorylation at Ser935 expressed in mouse brain at 100 mg/kg, po measured after 3 hrs by ELISA; type: functional
Brain = assay: Drug uptake in brain of mouse expressing mouse LRRK2 G2019S mutant at 30 mg/kg, po; type: ADME, organism-based; set-up: dose 30 mg/kg, route oral; conditions: in vivo
Plasma = assay: Plasma concentration in mouse expressing mouse LRRK2 G2019S mutant at 100 mg/kg, po; type: ADME, organism-based; set-up: dose 100 mg/kg, route oral; conditions: in vivo
[27] = Ratio of drug uptake in brain to plasma of mouse expressing mouse LRRK2 G2019S mutant at 100 mg/kg, po; type: ADME, organism-based; set-up: dose 100 mg/kg, route oral; conditions: read-out: BPR

With C[C@@H](Nc1c(C#N)cnc2cc(-c3ccc(-n4ccoc4=O)cc3)ccc12)C1CC1 the inhibition [1] was -2%, the inhibition [2] was 19% and the inhibition [3] was 8%. It also gave an inhibition [4] of 24%, an inhibition [5] of 39% and an inhibition [6] of 13%. For the same molecule, the inhibition [7] was 30%, the inhibition [8] was 67% and the inhibition [9] was 44%. The inhibition [10] was 7%, the inhibition [11] was 18% and the inhibition [12] was 1%. It also gave an inhibition [13] of 30%, an inhibition [14] of 12% and an inhibition [15] of 6%. For the same molecule, the inhibition [16] was 81% and the inhibition [17] was 18%.

CC(C)Nc1c(C#N)cnc2cc(-c3ccc(S(C)(=O)=O)cc3)ccc12 gave an inhibition [18] of 16%, an inhibition [19] of 25% and an inhibition [20] of 9%. For the same molecule, the inhibition [21] was 3%, the inhibition [22] was 32% and the inhibition [23] was 60%. It also gave an inhibition [24] of 17%, an inhibition [25] of 43% and an inhibition [26] of 28%.

CC(C)Nc1c(C#N)cnc2cc(-c3cnn(C)c3)ccc12 showed an inhibition in vivo at 100 mg/kg (Mus musculus) of 44%, an inhibition [18] of 3% and an inhibition [19] of 27%. The inhibition [20] was 9%, the Drug uptake (Brain) was 4 ng/mL and the inhibition [21] was 10%. It also gave an inhibition [22] of 27%, a Cp (Plasma) of 31.8 ng/mL and an inhibition [23] of 67%. For the same molecule, the inhibition [24] was 77%, the Kp [27] was 2.1 and the inhibition [25] was 41%. It also gave an inhibition [26] of 6%.
